What was measured:
[1] = test system: Aβ1-42 induced inhibition of long-term potentiation in the CA1 region of hippocampal slices; test: Aβ-induced LTP impairment in CA1 region of hippocampal slices (fEPSP recordings, theta-burst stimulation); assay type: cell-based, rat; mice; conditions: for reversal of Aβ-induced LTP impairment: individual terpene trilactones at 1 μM each, co-treated with 200 nM Aβ1-42 oligomers, 20 min; for efficiency of rescue of LTP impairment compared with GJ: 1 μM, 20 min treatment, slices treated with Aβ
glycine receptor = conditions: among several receptor-gated channels; cited from earlier work
[2] = test system: SY5Y human neuroblastoma cell line; conditions: Bate et al. (25); cited from earlier work
[3] = test system: cultured hippocampal neurons treated with oligomeric Aβ1-42; test: Neuronal cell death assay (nuclear counting of viable cells); conditions: for cells surviving: mean±SEM
GABAA receptor = conditions: compared with all the ginkgolides; cited from earlier work
[4] = test system: GABAA receptor convulsant binding site; conditions: cited from earlier work
[5] = test system: inhibition of LTP by Aβ1-42 oligomers; conditions: earlier studies (19); cited from earlier work
[6] = 1 μM compound added at the same time as 10 μM oligomeric Aβ1-42, 24 hour, Aβ alone 48.5%±2.4

CC(C)(C)[C@]1(O)CC2OC(=O)CC23C(=O)OC2OC(=O)[C@H](O)C231 (stereo partly drawn) [BB, bilobalide]
reversal of Aβ-induced LTP impairment [1]: No effect

C[C@@H]1C(=O)O[C@H]2C[C@@]34[C@H]5C[C@@H](C(C)(C)C)[C@]36[C@@H](OC(=O)[C@@H]6O)O[C@@]4(C(=O)O5)[C@]21O [GA, ginkgolide A]
efficiency of rescue of LTP impairment compared with GJ [1]: slightly less than that of GJ | reversal of Aβ-induced LTP impairment [1]: capable of reproducing the activity of the enriched extract and reversing Aβ-induced LTP impairment | antagonistic properties toward glycine receptor (glycine receptor): showed antagonistic properties exclusively toward glycine receptor | blockade of cell death [2]: blockade of cell death | cells surviving [3, 6]: 50.5%±+5.7

C[C@@H]1COC2CC34C5C[C@@H](C(C)(C)C)C36C(OC[C@@H]6O)O[C@@]4(CO5)[C@]21O (stereo partly drawn) [GA-triether]
efficiency of rescue of LTP impairment compared with GJ [1]: slightly less than that of GJ | reversal of Aβ-induced LTP impairment [1]: capable of reproducing the activity of the enriched extract and reversing Aβ-induced LTP impairment

CC1C(=O)OC2C(O)C34C5CC(C(C)(C)C)C36C(OC(=O)C6O)OC4(C(=O)O5)C12O (stereo not drawn) [GB, ginkgolide B]
reversal of Aβ-induced LTP impairment [1]: No effect | antagonistic properties toward glycine receptor (glycine receptor): showed antagonistic properties exclusively toward glycine receptor | blockade of cell death [2]: blockade of cell death

C[C@@H]1C(=O)O[C@@H]2[C@H]1[C@@]13OC4OC(=O)[C@H](O)C45[C@H](C(C)(C)C)[C@@H](O)C(OC1=O)[C@]53[C@H]2O (stereo partly drawn) [GM, Ginkgolide M]
inhibition of the GABAA receptor (GABAA receptor): highest inhibition | displacement of TBPS (35S-tert-butylbicyclophosphorothionate) [4]: efficiently displaced

COc1ccc(C2CNC(=O)C2)cc1OC1CCCC1 (stereo not drawn) [rolipram]
reversal of inhibition of LTP by Aβ1-42 oligomers [5]: can be reversed by treatment with the phosphodiesterase 4 (PDE4) inhibitor rolipram

ginkgolide C [GC]
reversal of Aβ-induced LTP impairment [1]: No effect | antagonistic properties toward glycine receptor (glycine receptor): showed antagonistic properties exclusively toward glycine receptor

ginkgolide J [GJ]
potentiation at the end of the recording (residual potentiation, FIG. 12) ([1]; 155 min): most potent ginkgolide, completely mimicking the activity of the enriched extract | reversal of Aβ-induced LTP impairment [1]: capable of reproducing the activity of the enriched extract and reversing Aβ-induced LTP impairment | antagonistic properties toward glycine receptor (glycine receptor): showed antagonistic properties exclusively toward glycine receptor | cells surviving [3, 6]: 70.7%±1.4 | prevention of Aβ-toxicity ([3]; 5 μM, data not shown): completely prevented the Aβ-toxicity

oligomeric Aβ1-42: Aβ1-42 purchased from American Peptide, prepared in oligomeric form; neurotoxic agent [reference compound]
LTP in the CA1 area relative to control ([1]; 200 nM Aβ1-42 oligomers alone, within 20 min of exposure): depressed LTP in the CA1 area to about a half of control values | effect on baseline transmission ([1]; substance alone): Neither Aβ nor P8A alone affected baseline transmission | cells surviving ([3]; 10 μM oligomeric Aβ1-42 alone, 24 hour exposure): 48.5%±2.4

Source: patent US20090221019A1, “Core-Modified Terpene Trilactones From Ginkgo Biloba Extract and Biological Evaluation Thereof” (priority 2005, published 2009)
